This passage reports IC50 and MIC results from US10722520B2, “Heterocyclic compounds and their use in preventing or treating bacterial infections” (MUTABILIS, priority 2016, dated 2020).

Targets include TEM-1 (Escherichia coli, UniProt P62593); OXA-1 (Escherichia coli, UniProt P13661); KPC-2 (Klebsiella pneumoniae, UniProt Q9F663); OXA-11 (Pseudomonas aeruginosa, UniProt Q06778); CTX-M-15 (Escherichia coli, UniProt Q9EXV5); SHV-1 (Klebsiella pneumoniae, UniProt P0AD64); OXA-48 (Klebsiella pneumoniae, UniProt Q6XEC0).
The next assay deals with AmpC (P99) (Enterobacter cloacae, UniProt P05364). Nature of the assay: biochemical.
Another assay has as its system K. pneumoniae 6299. Put plainly: MIC of compound alone, broth microdilution. The assay is classed as cell-based. Conditions: Klebsiella pneumoniae; strain 6299; compound alone; read-out: MIC compounds of the invention alone. The procedure:
(§1) Log phase bacterial suspensions were adjusted to a final density of 5×10^5 cfu/mL in cation-adjusted Mueller-Hinton broth (Becton-Dickinson) and added to each well (98 μL). Microplates were incubated for 16-20 h at 35° C. in ambient air. The MIC of the compounds was defined as the lowest concentration of said compounds that prevented bacterial growth as read by visual inspection.
A general note: In broth dilution the organism is exposed to a series of concentrations in liquid medium.

The next assay has as its system E. coli 190317. Put plainly: MIC of compound alone, broth microdilution. Conditions: Escherichia coli; strain 190317; compound alone; read-out: MIC compounds of the invention alone. The assay is classed as cell-based. How it is done:
as §1

In another assay the test system is P. aeruginosa CIP107051. Put plainly: MIC of compound alone, broth microdilution. Type of assay: cell-based. Conditions: Pseudomonas aeruginosa; strain CIP107051; compound alone; read-out: MIC compounds of the invention alone. The procedure: as §1
In another assay the test system is E. cloacae P99. Nature of the assay: MIC of compound alone, broth microdilution. The note with it: Enterobacter cloacae; strain P99; compound alone; read-out: MIC compounds of the invention alone. Type of assay: cell-based. The procedure: as §1
The test system of the next assay is K. pneumoniae BAA-1898. Nature of the assay: MIC of compound alone, broth microdilution. The assay is classed as cell-based. The note with it: Klebsiella pneumoniae, BAA1898; strain BAA-1898; compound alone; read-out: MIC compounds of the invention alone. The procedure: as §1
Another assay addresses OXA-15 (Pseudomonas aeruginosa, UniProt Q51574). Put plainly: biochemical.
A further assay has as its target CMY-37 (Citrobacter freundii, UniProt P05193). Conditions: read-out: IC50 β-lactamase CMY-37.
In a further assay the target is AmpC (PAE) (Pseudomonas aeruginosa, UniProt P24735). Put plainly: biochemical.
The mark [1] stands for this setting: class (C), nitrocefin 200 μM, 30-min pre-incubation, enzyme 0.2 nM.

Counter-ions that a name gives are not always drawn. Like-named read-outs stand apart in the source and are kept apart here.

The IC50 is the point on the concentration scale where inhibition reaches its midpoint. The MIC is the least concentration at which growth counts as inhibited.

As to `O=C1N2CC(n3ccnc3CO)=CC(C2)N1OS(=O)(=O)[O-].[Na+]` (stereo not drawn) [Example 70, sodium [3-[2-(hydroxymethyl)imidazol-1-yl]-7-oxo-1,6-diazabicyclo[3.2.1]oct-3-en-6-yl]sulfate], the IC50 on AmpC (P99) is 94 nM; against TEM-1 it was 0.63 nM; against OXA-1, 92 nM; on OXA-15, 30 nM; on CMY-37 it was 120 nM; against KPC-2, 51 nM. In addition, the IC50 at AmpC (PAE) was determined as 600 nM; against OXA-11, 170 nM; against CTX-M-15, 3.5 nM; against SHV-1, 2.3 nM; against OXA-48, 6.2 nM. Besides, the MIC was more than 32 µg/mL with K. pneumoniae 6299; 32 µg/mL in the assay with E. coli 190317; more than 32 µg/mL in the assay with P. aeruginosa CIP107051; more than 32 µg/mL in the assay on E. cloacae P99; 32 µg/mL in the assay on K. pneumoniae BAA-1898.
Take `O=C1N2CC(n3ccc(F)n3)=CC(C2)N1OS(=O)(=O)[O-].[Na+]` (stereo not drawn) [Example 18, sodium [7-oxo-3-(3-fluoropyrazol-1-yl)-1,6-diazabicyclo[3.2.1]oct-3-en-6-yl]sulfate]: the half-inhibitory concentration (IC50) on AmpC (P99) was 24 nM; at TEM-1 it was 0.43 nM; against OXA-1 it was 96 nM; against OXA-15, 78 nM; at CMY-37, 18 nM; on KPC-2 it was 13 nM. The concentration for half-maximal inhibition (IC50) against AmpC (PAE) stood at 43 nM; on OXA-11, 46 nM; against CTX-M-15, 0.65 nM; against SHV-1, 2.8 nM; against OXA-48, 8.2 nM. Moreover, the minimum inhibitory concentration (MIC) with K. pneumoniae 6299 was 4 µg/mL; in the assay on E. coli 190317, 1 µg/mL; in the assay with P. aeruginosa CIP107051, more than 32 µg/mL; in the assay on E. cloacae P99, 8 µg/mL; in the assay with K. pneumoniae BAA-1898 it was 8 µg/mL.
`O=C(N[C@H]1CCNC1)c1ccn(C2=CC3CN(C2)C(=O)N3OS(=O)(=O)O)n1` (stereo partly drawn) [Example 82, [7-oxo-3-[3-[[(3S)-pyrrolidin-3-yl]carbamoyl]pyrazol-1-yl]-1,6-diazabicyclo[3.2.1]oct-3-en-6-yl]hydrogen sulfate]: the IC50 amounted to 32 nM against AmpC (P99); 0.58 nM on TEM-1; 110 nM at OXA-1; 47 nM against OXA-15; 61 nM on CMY-37 (setting [1]); 10 nM against KPC-2. The half-inhibitory concentration (IC50) against AmpC (PAE) came out at 270 nM; against OXA-11, 22 nM; on CTX-M-15, 0.89 nM; against SHV-1, 4.9 nM; against OXA-48 it was 3.2 nM. The MIC with K. pneumoniae 6299 was 32 µg/mL; in the assay on E. coli 190317, 2 µg/mL; in the assay on P. aeruginosa CIP107051, more than 32 µg/mL; in the assay with E. cloacae P99, 4 µg/mL; in the assay with K. pneumoniae BAA-1898, 32 µg/mL.
Regarding `[2H]c1nn(C2=CC3CN(C2)C(=O)N3OS(=O)(=O)[O-])c([2H])c1[2H].[Na+]` (stereo not drawn) [Example 43, sodium [7-oxo-3-(3,4,5-trideuteriopyrazol-1-yl)-1,6-diazabicyclo[3.2.1]oct-3-en-6-yl]sulfate], the IC50 against AmpC (P99) was 12 nM; against TEM-1 it was 0.85 nM; against OXA-1 it was 98 nM; at OXA-15, 140 nM; at CMY-37 it was 6.4 nM; against KPC-2, 29 nM. For the same compound, the IC50 on AmpC (PAE) was found to be 9.4 nM; against OXA-11, 39 nM; at CTX-M-15, 0.87 nM; on SHV-1, 3.6 nM; on OXA-48, 6 nM. Further, the MIC was 8 µg/mL in the assay with K. pneumoniae 6299; 1 µg/mL with E. coli 190317; more than 32 µg/mL in the assay with P. aeruginosa CIP107051; 4 µg/mL in the assay on E. cloacae P99; 8 µg/mL in the assay on K. pneumoniae BAA-1898.
As to `O=C1N2CC(n3cc(C(F)(F)F)cn3)=CC(C2)N1OS(=O)(=O)[O-].[Na+]` (stereo not drawn) [Example 22, sodium [7-oxo-3-[4-(trifluoromethyl)pyrazol-1-yl]-1,6-diazabicyclo[3.2.1]oct-3-en-6-yl]sulfate], the IC50 at AmpC (P99) was determined as 17 nM; against TEM-1, 0.21 nM; at OXA-1 it was 180 nM; against OXA-15 it was 9.1 nM; at CMY-37, 12 nM; against KPC-2, 3 nM. The IC50 on AmpC (PAE) is 78 nM; against OXA-11 it was 220 nM; on CTX-M-15 it was 0.55 nM; on SHV-1 it was 1.1 nM; against OXA-48, 4.6 nM. Besides, the minimum inhibitory concentration (MIC) in the assay on K. pneumoniae 6299, in the assay on E. coli 190317, in the assay with P. aeruginosa CIP107051, in the assay on E. cloacae P99 and in the assay on K. pneumoniae BAA-1898 was more than 32 µg/mL in each case.
For `NCCNC(=O)c1cnn(C2=CC3CN(C2)C(=O)N3OS(=O)(=O)O)c1` (stereo not drawn) [Example 38, [3-[4-(2-aminoethylcarbamoyl)pyrazol-1-yl]-7-oxo-1,6-diazabicyclo[3.2.1]oct-3-en-6-yl]hydrogen sulfate], the IC50 against AmpC (P99) came to 34 nM; on TEM-1, 0.43 nM; at OXA-1, 180 nM; at OXA-15, 17 nM; on CMY-37 (setting [1]), 38 nM; at KPC-2, 7.5 nM. The IC50 worked out at 210 nM against AmpC (PAE); 50 nM against OXA-11; 0.7 nM against CTX-M-15; 2.5 nM on SHV-1; 3.2 nM on OXA-48. For the same compound, the MIC was more than 32 µg/mL in the assay on K. pneumoniae 6299; 4 µg/mL in the assay with E. coli 190317; 32 µg/mL in the assay with P. aeruginosa CIP107051; 16 µg/mL with E. cloacae P99; more than 32 µg/mL in the assay on K. pneumoniae BAA-1898.
Turning to `Nc1ncc(C(=O)Nc2ccn(C3=CC4CN(C3)C(=O)N4OS(=O)(=O)[O-])n2)s1.[Na+]` (stereo not drawn) [Example 13, sodium [3-[3-[(2-aminothiazole-5-carbonyl)amino]pyrazol-1-yl]-7-oxo-1,6-diazabicyclo[3.2.1]oct-3-en-6-yl]sulfate], the IC50 is 2.6 nM against AmpC (P99); 0.65 nM at TEM-1; 27 nM on OXA-1; 11 nM against OXA-15; 1.1 nM at CMY-37; 2.5 nM against KPC-2. In addition, the IC50 is 8.7 nM at AmpC (PAE); 4 nM at OXA-11; 0.62 nM against CTX-M-15; 3.2 nM on SHV-1; 1.9 nM on OXA-48. Also, the minimal inhibitory concentration (MIC) with K. pneumoniae 6299 was more than 32 µg/mL; in the assay on E. coli 190317 it was 32 µg/mL; with P. aeruginosa CIP107051, more than 32 µg/mL; in the assay with E. cloacae P99 it was more than 32 µg/mL; in the assay with K. pneumoniae BAA-1898 it was more than 32 µg/mL.
Take `CC(=O)c1cnn(C2=CC3CN(C2)C(=O)N3OS(=O)(=O)[O-])c1.[Na+]` (stereo not drawn) [Example 40, sodium [3-(4-acetylpyrazol-1-yl)-7-oxo-1,6-diazabicyclo[3.2.1]oct-3-en-6-yl]sulfate]: the IC50 is 7.5 nM against AmpC (P99); 0.35 nM against TEM-1; 150 nM at OXA-1; 8.6 nM at OXA-15; 8.3 nM on CMY-37; 3.4 nM at KPC-2. The IC50 against AmpC (PAE) was determined as 260 nM; against OXA-11 it was 95 nM; against CTX-M-15, 0.91 nM; against SHV-1 it was 1.8 nM; at OXA-48, 6.3 nM. Also, the MIC was more than 32 µg/mL in the assay with K. pneumoniae 6299; 32 µg/mL in the assay on E. coli 190317; more than 32 µg/mL with P. aeruginosa CIP107051; more than 32 µg/mL with E. cloacae P99; more than 32 µg/mL with K. pneumoniae BAA-1898.
For the compound `O=C1N2CC(n3cc(CO)cn3)=CC(C2)N1OS(=O)(=O)[O-].[Na+]` (stereo not drawn) [Example 71, sodium [3-[4-(hydroxymethyl)pyrazol-1-yl]-7-oxo-1,6-diazabicyclo[3.2.1]oct-3-en-6-yl]sulfate], the IC50 amounted to 19 nM at AmpC (P99); 1.4 nM on TEM-1; 450 nM against OXA-1; 55 nM against OXA-15; 10 nM at CMY-37; 42 nM against KPC-2. Moreover, the half-maximal inhibitory concentration (IC50) at AmpC (PAE) turned out to be 47 nM; at OXA-11, 260 nM; at CTX-M-15 it was 0.78 nM; on SHV-1, 9.6 nM; on OXA-48 it was 12 nM. Also, the MIC in the assay with K. pneumoniae 6299 is 32 µg/mL; with E. coli 190317, 4 µg/mL; in the assay on P. aeruginosa CIP107051, more than 32 µg/mL; in the assay with E. cloacae P99, 16 µg/mL; in the assay on K. pneumoniae BAA-1898, 16 µg/mL.
